According to ChEMBL document CHEMBL1201862, “PubChem BioAssay data set” (2004):
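How tested: cells in 96-well plates exposed to compound for 48 hours at five concentrations. GI50 marks 50% less growth.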 The source made the active and inactive calls. No stated cut-off is given here; in the data, active = GI50 up to about 1.1 µM and inactive = higher.

What was measured:
Experiment in all cases: NCI anticancer screen, dose series, 48 h
[1] = tested on: 786-0
[2] = tested on: A498
[3] = tested on: A549
[4] = tested on: ACHN
[5] = tested on: CAKI-1
[6] = tested on: CCRF-CEM
[7] = tested on: COLO 205
[8] = tested on: DLD-1
[9] = tested on: DMS-114
[10] = tested on: DMS-273
[11] = tested on: EKVX
[12] = tested on: HCC 2998
[13] = tested on: HCT-116
[14] = tested on: HCT-15
[15] = tested on: HL-60
[16] = tested on: HOP-18
[17] = tested on: HOP-62
[18] = tested on: HT-29
[19] = tested on: IGROV-1
[20] = tested on: K562
[21] = tested on: KM-20L2
[22] = tested on: KM12
[23] = tested on: LOX IMVI
[24] = tested on: LXFL 529
[25] = tested on: M14
[26] = tested on: M19-MEL
[27] = tested on: MOLT-4
[28] = tested on: Malme-3M
[29] = tested on: NCI-H226
[30] = tested on: NCI-H23
[31] = tested on: NCI-H460
[32] = tested on: NCI-H522
[33] = tested on: OVCAR-3
[34] = tested on: OVCAR-4
[35] = tested on: OVCAR-5
[36] = tested on: OVCAR-8
[37] = tested on: RXF 393
[38] = tested on: SF-268
[39] = tested on: SF-295
[40] = tested on: SK-MEL-28
[41] = tested on: SK-MEL-2
[42] = tested on: SK-MEL-5
[43] = tested on: SK-OV-3
[44] = tested on: SN12C
[45] = tested on: SNB-19
[46] = tested on: SNB-75
[47] = tested on: SR
[48] = tested on: SW-620
[49] = tested on: TK-10
[50] = tested on: U-251
[51] = tested on: UACC-257
[52] = tested on: UACC-62
[53] = tested on: UO-31

O=c1c2ccc3cccc4c(=O)cc(c5ccccc15)-c2c34
GI50 [1]: > 100 µM (inactive)
GI50 [2]: > 100 µM (inactive)
GI50 [3]: > 100 µM (inactive)
GI50 [4]: > 100 µM (inactive)
GI50 [5]: > 100 µM (inactive)
GI50 [6]: > 100 µM (inactive)
GI50 [7]: > 100 µM (inactive)
GI50 [8]: > 100 µM (inactive)
GI50 [9]: 32 µM (inactive)
GI50 [10]: > 100 µM (inactive)
GI50 [11]: > 100 µM (inactive)
GI50 [12]: > 100 µM (inactive)
GI50 [13]: > 100 µM (inactive)
GI50 [14]: > 100 µM
GI50 [15]: 43.9 µM (inactive)
GI50 [16]: 22.7 µM (inactive)
GI50 [17]: > 100 µM (inactive)
GI50 [18]: > 100 µM (inactive)
GI50 [19]: > 100 µM (inactive)
GI50 [20]: 54.5 µM (inactive)
GI50 [21]: > 100 µM (inactive)
GI50 [22]: > 100 µM (inactive)
GI50 [23]: 29.2 µM (inactive)
GI50 [24]: 29.6 µM (inactive)
GI50 [25]: > 100 µM (inactive)
GI50 [26]: 20.3 µM (inactive)
GI50 [27]: 59.2 µM (inactive)
GI50 [28]: 30.5 µM (inactive)
GI50 [29]: > 100 µM (inactive)
GI50 [30]: 31.7 µM (inactive)
GI50 [31]: > 100 µM (inactive)
GI50 [32]: 76.9 µM (inactive)
GI50 [33]: 28.2 µM (inactive)
GI50 [34]: > 100 µM (inactive)
GI50 [35]: > 100 µM (inactive)
GI50 [36]: 28.6 µM (inactive)
GI50 [37]: > 100 µM (inactive)
GI50 [38]: > 100 µM (inactive)
GI50 [39]: > 100 µM (inactive)
GI50 [40]: > 100 µM (inactive)
GI50 [41]: 22 µM (inactive)
GI50 [42]: 57.4 µM (inactive)
GI50 [43]: > 100 µM (inactive)
GI50 [44]: > 100 µM (inactive)
GI50 [45]: > 100 µM (inactive)
GI50 [46]: > 100 µM (inactive)
GI50 [47]: > 100 µM (inactive)
GI50 [48]: > 100 µM (inactive)
GI50 [49]: > 100 µM (inactive)
GI50 [50]: 45.4 µM (inactive)
GI50 [51]: > 100 µM (inactive)
GI50 [52]: > 100 µM (inactive)
GI50 [53]: > 100 µM (inactive)
